The compounds below were run against GST-tagged-Wee1 kinase (Homo sapiens, UniProt P30291) (assay: Wee1 time-resolved fluorescence equilibrium binding assay (displacement of Oregon Green-labeled ATP-competitive kinase probe)).
Procedure: Wee1 kinase was assayed using a time-resolved fluorescence equilibrium binding assay monitoring displacement of a rapidly reversible Oregon Green-labeled ATP-competitive kinase probe (N-(2-(2-(2-(4-(4-(5-chloro-4-(2-(1-hydroxycyclobutyl)thiazol-5-yl)-1H-pyrrolo[2,3-b]pyridin-2-yl)phenyl)piperazin-1-yl)ethoxy)ethoxy)ethyl)-2′,7′-difluoro-3′,6′-dihydroxy-3-oxo-3H-spiro[isobenzofuran-1,9′-xanthene]-5-carboxamide) by competitive Wee1 inhibitors.

Chain of GST-tagged-Wee1 kinase (P30291 whole entry): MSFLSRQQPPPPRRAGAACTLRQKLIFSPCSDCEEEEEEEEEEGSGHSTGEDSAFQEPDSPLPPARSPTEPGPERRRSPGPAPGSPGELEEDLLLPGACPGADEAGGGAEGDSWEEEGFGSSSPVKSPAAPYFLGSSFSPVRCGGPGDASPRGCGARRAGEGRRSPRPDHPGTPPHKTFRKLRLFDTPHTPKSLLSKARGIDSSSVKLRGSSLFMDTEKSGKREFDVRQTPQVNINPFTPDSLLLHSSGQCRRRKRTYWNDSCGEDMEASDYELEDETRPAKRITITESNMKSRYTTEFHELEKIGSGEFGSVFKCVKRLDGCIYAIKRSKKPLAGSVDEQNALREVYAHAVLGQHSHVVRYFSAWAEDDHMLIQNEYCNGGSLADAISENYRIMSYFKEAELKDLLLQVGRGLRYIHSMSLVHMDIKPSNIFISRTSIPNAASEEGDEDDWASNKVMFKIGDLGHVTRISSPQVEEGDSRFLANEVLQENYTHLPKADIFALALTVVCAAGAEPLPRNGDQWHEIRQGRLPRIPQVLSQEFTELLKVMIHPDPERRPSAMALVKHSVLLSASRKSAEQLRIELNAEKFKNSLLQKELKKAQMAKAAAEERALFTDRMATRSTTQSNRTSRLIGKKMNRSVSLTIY

Structure (SMILES)	Ki
CN1CCN(c2ccc(Nc3ncc4c(=O)n(-c5c(Cl)cccc5Cl)nc(-c5cccc(C(=O)N6CCCCC6)c5)c4n3)cc2)CC1 [Example 194, 6-(2,6-dichlorophenyl)-2-{[4-(4-methylpiperazin-1-yl)phenyl]amino}-8-[3-(piperidin-1-ylcarbonyl)phenyl]pyrimido[4,5-d]pyridazin-5(6H)-one]	< 1 nM
C=CCn1nc(C2CC(F)(F)C2)c2nc(Nc3ccc(N4CCN(C)CC4)cc3)ncc2c1=O [Example 196, 8-(3,3-difluorocyclobutyl)-2-{[4-(4-methylpiperazin-1-yl)phenyl]amino}-6-(prop-2-en-1-yl)pyrimido[4,5-d]pyridazin-5(6H)-one]	230 nM
CN1CCN(c2ccc(Nc3ncc4c(=O)n(-c5ccccn5)nc(C5CC(F)(F)C5)c4n3)cc2)CC1 [Example 197, 8-(3,3-difluorocyclobutyl)-2-{[4-(4-methylpiperazin-1-yl)phenyl]amino}-6-(pyridin-2-yl)pyrimido[4,5-d]pyridazin-5(6H)-one]	100 nM
CN1CCN(c2ccc(Nc3ncc4c(=O)n(-c5ccccc5F)nc(C5CC(F)(F)C5)c4n3)cc2)CC1 [Example 198, 8-(3,3-difluorocyclobutyl)-6-(2-fluorophenyl)-2-{[4-(4-methylpiperazin-1-yl)phenyl]amino}pyrimido[4,5-d]pyridazin-5(6H)-one]	25 nM
CN1CCN(c2ccc(Nc3ncc4c(=O)n(-c5cccc(F)c5)nc(C5CC(F)(F)C5)c4n3)cc2)CC1 [Example 199, 8-(3,3-difluorocyclobutyl)-6-(3-fluorophenyl)-2-{[4-(4-methylpiperazin-1-yl)phenyl]amino}pyrimido[4,5-d]pyridazin-5(6H)-one]	82 nM
CN(C)Cc1ccc(Nc2ncc3c(=O)n(-c4ccccc4Cl)nc(-c4ccccc4)c3n2)cc1 [Example 204, 6-(2-chlorophenyl)-2-({4-[(dimethylamino)methyl]phenyl}amino)-8-phenylpyrimido[4,5-d]pyridazin-5(6H)-one]	2 nM
Cc1ccccc1-n1nc(-c2cccs2)c2nc(Nc3ccc(CN(C)C)cc3)ncc2c1=O [Example 208, 2-({4-[(dimethylamino)methyl]phenyl}amino)-6-(2-methylphenyl)-8-(thiophen-2-yl)pyrimido[4,5-d]pyridazin-5(6H)-one]	2 nM
CN(C)Cc1ccc(Nc2ncc3c(=O)n(-c4ccccc4Cl)nc(-c4cccs4)c3n2)cc1 [Example 209, 6-(2-chlorophenyl)-2-({4-[(dimethylamino)methyl]phenyl}amino)-8-(thiophen-2-yl)pyrimido[4,5-d]pyridazin-5(6H)-one]	0.8 nM
C=CCn1nc(-c2cccs2)c2nc(Nc3ccc(CN(C)C)cc3)ncc2c1=O [Example 210, 2-({4-[(dimethylamino)methyl]phenyl}amino)-6-(prop-2-en-1-yl)-8-(thiophen-2-yl)pyrimido[4,5-d]pyridazin-5(6H)-one]	33 nM
CNCCn1cc(-c2nn(-c3c(Cl)cccc3Cl)c(=O)c3cnc(Nc4ccc(N5CCN(C)CC5)cc4)nc23)cn1 [Example 211, 6-(2,6-dichlorophenyl)-8-{1-[2-(methylamino)ethyl]-1H-pyrazol-4-yl}-2-{[4-(4-methylpiperazin-1-yl)phenyl]amino}pyrimido[4,5-d]pyridazin-5(6H)-one]	0.6 nM
CN(C)CCn1cc(-c2nn(-c3c(Cl)cccc3Cl)c(=O)c3cnc(Nc4ccc(N5CCN(C)CC5)cc4)nc23)cn1 [Example 212, 6-(2,6-dichlorophenyl)-8-{1-[2-(dimethylamino)ethyl]-1H-pyrazol-4-yl}-2-{[4-(4-methylpiperazin-1-yl)phenyl]amino}pyrimido[4,5-d]pyridazin-5(6H)-one]	0.6 nM
CN1CCN(c2ccc(Nc3ncc4c(=O)n(-c5c(Cl)cccc5Cl)nc(-c5cnn(CCN6CCCCC6)c5)c4n3)cc2)CC1 [Example 213, 6-(2,6-dichlorophenyl)-2-{[4-(4-methylpiperazin-1-yl)phenyl]amino}-8-{1-[2-(piperidin-1-yl)ethyl]-1H-pyrazol-4-yl}pyrimido[4,5-d]pyridazin-5(6H)-one]	0.6 nM
Nc1ccc(N2CCN(c3ncc4c(=O)n(-c5ccncc5)nc(-c5ccccn5)c4n3)CC2)cc1 [Example 218, 2-(4-(4-aminophenyl)piperazin-1-yl)-8-(pyridin-2-yl)-6-(pyridin-4-yl)pyridazino[4,5-d]pyrimidin-5(6H)-one]	480 nM

The remaining compounds from weak to strong by Ki, led by results:

Ki	Structure (SMILES)
0.4 nM	CN1CCN(CCn2cc(-c3nn(-c4c(Cl)cccc4Cl)c(=O)c4cnc(Nc5ccc(N6CCN(C)CC6)cc5)nc34)cn2)CC1 [Example 214, 6-(2,6-dichlorophenyl)-8-{1-[2-(4-methylpiperazin-1-yl)ethyl]-1H-pyrazol-4-yl}-2-{[4-(4-methylpiperazin-1-yl)phenyl]amino}pyrimido[4,5-d]pyridazin-5(6H)-one]
0.3 nM	CN1CCN(c2ccc(Nc3ncc4c(=O)n(-c5c(Cl)cccc5Cl)nc(-c5cnn(CCCl)c5)c4n3)cc2)CC1 [Example 200, 8-[1-(2-chloroethyl)-1H-pyrazol-4-yl]-6-(2,6-dichlorophenyl)-2-{[4-(4-methylpiperazin-1-yl)phenyl]amino}pyrimido[4,5-d]pyridazin-5(6H)-one]
0.3 nM	CCNCCn1cc(-c2nn(-c3c(Cl)cccc3Cl)c(=O)c3cnc(Nc4ccc(N5CCN(C)CC5)cc4)nc23)cn1 [Example 202, 6-(2,6-dichlorophenyl)-8-{1-[2-(ethylamino)ethyl]-1H-pyrazol-4-yl}-2-{[4-(4-methylpiperazin-1-yl)phenyl]amino}pyrimido[4,5-d]pyridazin-5(6H)-one]
0.2 nM	C=Cn1cc(-c2nn(-c3c(Cl)cccc3Cl)c(=O)c3cnc(Nc4ccc(N5CCN(C)CC5)cc4)nc23)cn1 [Example 201, 6-(2,6-dichlorophenyl)-8-(1-ethenyl-1H-pyrazol-4-yl)-2-{[4-(4-methylpiperazin-1-yl)phenyl]amino}pyrimido[4,5-d]pyridazin-5(6H)-one]
0.2 nM	CN1CCN(c2ccc(Nc3ncc4c(=O)n(-c5c(Cl)cccc5Cl)nc(-c5cncn5C)c4n3)cc2)CC1 [Example 203, 6-(2,6-dichlorophenyl)-8-(1-methyl-1H-imidazol-5-yl)-2-{[4-(4-methylpiperazin-1-yl)phenyl]amino}pyrimido[4,5-d]pyridazin-5(6H)-one]
0.2 nM	Cc1cc(Nc2ncc3c(=O)n(-c4ccccc4Cl)nc(-c4ccccc4)c3n2)ccc1N1CCN(C(C)C)CC1 [Example 205, 6-(2-chlorophenyl)-2-({3-methyl-4-[4-(propan-2-yl)piperazin-1-yl]phenyl}amino)-8-phenylpyrimido[4,5-d]pyridazin-5(6H)-one]
0.2 nM	Cc1cc(Nc2ncc3c(=O)n(-c4ccccc4Cl)nc(-c4ccccc4)c3n2)ccc1N1CCCN(C(C)C)CC1 [Example 206, 6-(2-chlorophenyl)-2-({3-methyl-4-[4-(propan-2-yl)-1,4-diazepan-1-yl]phenyl}amino)-8-phenylpyrimido[4,5-d]pyridazin-5(6H)-one]
0.2 nM	CN1CCN(Cc2cccc(-c3nn(-c4c(Cl)cccc4Cl)c(=O)c4cnc(Nc5ccc(N6CCN(C)CC6)cc5)nc34)c2)CC1 [Example 215, 6-(2,6-dichlorophenyl)-8-{3-[(4-methylpiperazin-1-yl)methyl]phenyl}-2-{[4-(4-methylpiperazin-1-yl)phenyl]amino}pyrimido[4,5-d]pyridazin-5(6H)-one]
0.1 nM	COc1cc(Nc2ncc3c(=O)n(-c4ccccc4Cl)nc(-c4ccccc4)c3n2)ccc1N1CCN(C(C)C)CC1 [Example 207, 6-(2-chlorophenyl)-2-({3-methoxy-4-[4-(propan-2-yl)piperazin-1-yl]phenyl}amino)-8-phenylpyrimido[4,5-d]pyridazin-5(6H)-one]
0.1 nM	CN1CCN(c2ccc(Nc3ncc4c(=O)n(-c5c(Cl)cccc5Cl)nc(-c5cccc(C(=O)N6CCC6)c5)c4n3)cc2)CC1 [Example 216, 8-[3-(azetidin-1-ylcarbonyl)phenyl]-6-(2,6-dichlorophenyl)-2-{[4-(4-methylpiperazin-1-yl)phenyl]amino}pyrimido[4,5-d]pyridazin-5(6H)-one]
0.1 nM	O=c1c2cnc(Nc3ccc4c(c3)CNCC4)nc2c(-c2ccccn2)nn1-c1c(Cl)cccc1Cl [Example 217, 6-(2,6-dichlorophenyl)-8-(pyridin-2-yl)-2-(1,2,3,4-tetrahydroisoquinolin-7-ylamino)pyrimido[4,5-d]pyridazin-5(6H)-one]
0.1 nM	CC(=O)c1cc(-c2nn(-c3c(Cl)cccc3Cl)c(=O)c3cnc(Nc4ccc(N5CCN(C)CC5)cc4)nc23)ccn1 [Example 219, 8-(2-acetylpyridin-4-yl)-6-(2,6-dichlorophenyl)-2-{[4-(4-methylpiperazin-1-yl)phenyl]amino}pyrimido[4,5-d]pyridazin-5(6H)-one]
0.03 nM	CNC(=O)c1cccc(-c2nn(-c3c(Cl)cccc3Cl)c(=O)c3cnc(Nc4ccc(N5CCN(C)CC5)cc4)nc23)c1 [Example 191, 3-[6-(2,6-dichlorophenyl)-2-{[4-(4-methylpiperazin-1-yl)phenyl]amino}-5-oxo-5,6-dihydropyrimido[4,5-d]pyridazin-8-yl]-N-methylbenzamide]
0.02 nM	CN1CCN(C(=O)c2cccc(-c3nn(-c4c(Cl)cccc4Cl)c(=O)c4cnc(Nc5ccc(N6CCN(C)CC6)cc5)nc34)c2)CC1 [Example 192, 6-(2,6-dichlorophenyl)-8-{3-[(4-methylpiperazin-1-yl)carbonyl]phenyl}-2-{[4-(4-methylpiperazin-1-yl)phenyl]amino}pyrimido[4,5-d]pyridazin-5(6H)-one]
0.01 nM	CN1CCN(c2ccc(Nc3ncc4c(=O)n(-c5c(Cl)cccc5Cl)nc(-c5cccc(C(=O)O)c5)c4n3)cc2)CC1 [Example 190, 3-[6-(2,6-dichlorophenyl)-2-{[4-(4-methylpiperazin-1-yl)phenyl]amino}-5-oxo-5,6-dihydropyrimido[4,5-d]pyridazin-8-yl]benzoic acid]

Reference: patent US8796289B2 (AbbVie Inc., priority 2011, dated 2014)
